Measured values from the NIST ThermoML archive (doi:10.1016/j.jct.2015.07.039).
± gives the expanded uncertainty stated by the source.

What was measured:
[1] = refractive index (Na D-line) (dimensionless); details: 298.15 K; 101.33 kPa; Liquid; Standard Abbe refractometry
[2] = 298.15 K; 101.33 kPa; Liquid; Vibrating tube method

For `CCCCl` [1-chloropropane], the refractive index [1] was 1.38526 ± 0.00032 and the mass density [2] was 883.81 ± 0.16 kg/m3.
